Results published in patent US4138554A, “7-[D-α-(4-Hydroxy-1,5-naphthyridine-3-carboxamido)-α-phenyl (and p-hydroxyphenyl)acetamido]-3-carbamoyloxymethyl-3-cephem-4-carboxylic acids” (priority 1977, dated 1979).
In brackets after ≈: the same amount, converted by molar mass. Read-outs that look alike come from different tables or passages of the source.

Tested on: Pseudomonas aeruginosa
Test: MIC by agar dilution against 61 strains of Pseudomonas aeruginosa, secondary evaluation
Type: cell-based
Conditions: for MIC: Pseudomonas aeruginosa, read-out: MIC
Experimental: Minimum inhibitory concentrations (MIC) of BB-S520 were determined by serial two-fold agar dilution method using Steers' apparatus on Meuller-Hinton agar plate against 31 test organisms for the primary screening and also against 61 strains of Pseudomonas aeruginosa for the secondary evaluation. The results are shown in Table 1 and Table 2 along with those of BB-S514 and sulbenicillin.
Minimum inhibitory concentrations (MIC) of cephalosporins in the present study were determined by serial two-fold agar dilution method using Steers' apparatus on Mueller-Hinton agar plate against 31 test organisms for the primary screening and also against 61 strains of Pseudomonas aeruginosa for the secondary evaluation.

CC(=O)OCC1=C(C(=O)O)N2C(=O)C(NC(=O)C(NC(=O)c3cnc4cccnc4c3O)c3ccccc3)C2SC1 (centres unmarked) [BB-S514]
Mean % Relative Activity (Sulbenicillin = 100%) (Ps. aeruginosa (61 strains), from geometric means of MICs in Table 2): 480%
MIC (BBRI Pa-No. 1, D15, Table 2): 6.3 µg/mL (≈ 10.9 µM)
MIC (BBRI Pa-No. 2, VA, Table 2): 6.3 µg/mL (≈ 10.9 µM)
MIC (BBRI Pa-No. 3, 1449VA, Table 2): 3.1 µg/mL (≈ 5.37 µM)
MIC (BBRI Pa-No. 4, H9 D113, Table 2): 12.5 µg/mL (≈ 21.6 µM)
MIC (BBRI Pa-No. 5, M4865KC, Table 2): 6.3 µg/mL (≈ 10.9 µM)
MIC (BBRI Pa-No. 6, No. 5, Table 2): 25 µg/mL (≈ 43.3 µM)
MIC (BBRI Pa-No. 7, Table 2): 12.5 µg/mL (≈ 21.6 µM)
MIC (BBRI Pa-No. 8, Table 2): 6.3 µg/mL (≈ 10.9 µM)
MIC (BBRI Pa-No. 9, Yale, Table 2): 6.3 µg/mL (≈ 10.9 µM)
MIC (BBRI Pa-No. 10, Table 2): 50 µg/mL (≈ 86.6 µM)
MIC (BBRI Pa-No. 11, Table 2): 6.3 µg/mL (≈ 10.9 µM)
MIC (BBRI Pa-No. 12, Table 2): 6.3 µg/mL (≈ 10.9 µM)
MIC (BBRI Pa-No. 14, Table 2): 6.3 µg/mL (≈ 10.9 µM)
MIC (BBRI Pa-No. 15, Table 2): 12.5 µg/mL (≈ 21.6 µM)
MIC (BBRI Pa-No. 16, No. 130, Table 2): 1.6 µg/mL (≈ 2.77 µM)
MIC (BBRI Pa-No. 17, H6 D114, Table 2): 3.1 µg/mL (≈ 5.37 µM)
MIC (BBRI Pa-No. 18, H8 D121, Table 2): 6.3 µg/mL (≈ 10.9 µM)
MIC (BBRI Pa-No. 19, Table 2): 3.1 µg/mL (≈ 5.37 µM)
MIC (BBRI Pa-No. 20, Table 2): 6.3 µg/mL (≈ 10.9 µM)
MIC (BBRI Pa-No. 21, Table 2): 6.3 µg/mL (≈ 10.9 µM)
MIC (BBRI Pa-No. 23, Table 2): 6.3 µg/mL (≈ 10.9 µM)
MIC (BBRI Pa-No. 24, Table 2): 50 µg/mL (≈ 86.6 µM)
MIC (BBRI Pa-No. 25, Table 2): 1.6 µg/mL (≈ 2.77 µM)
MIC (BBRI Pa-No. 26, Ps32, Table 2): 3.1 µg/mL (≈ 5.37 µM)
MIC (BBRI Pa-No. 28, CPH10527/72, Table 2): 6.3 µg/mL (≈ 10.9 µM)
MIC (BBRI Pa-No. 29, D122, Table 2): 3.1 µg/mL (≈ 5.37 µM)
MIC (BBRI Pa-No. 30, Table 2): 6.3 µg/mL (≈ 10.9 µM)
MIC (BBRI Pa-No. 31, Table 2): 1.6 µg/mL (≈ 2.77 µM)
MIC (BBRI Pa-No. 32, Table 2): 6.3 µg/mL (≈ 10.9 µM)
MIC (BBRI Pa-No. 33, Table 2): 25 µg/mL (≈ 43.3 µM)
MIC (BBRI Pa-No. 34, Table 2): 6.3 µg/mL (≈ 10.9 µM)
MIC (BBRI Pa-No. 35, Table 2): 25 µg/mL (≈ 43.3 µM)
MIC (BBRI Pa-No. 36, Table 2): 0.4 µg/mL (≈ 0.693 µM)
MIC (BBRI Pa-No. 37, Table 2): 6.3 µg/mL (≈ 10.9 µM)
MIC (BBRI Pa-No. 38, Table 2): 12.5 µg/mL (≈ 21.6 µM)
MIC (BBRI Pa-No. 39, Table 2): 3.1 µg/mL (≈ 5.37 µM)
MIC (BBRI Pa-No. 41, Table 2): 6.3 µg/mL (≈ 10.9 µM)
MIC (BBRI Pa-No. 42, Table 2): 12.5 µg/mL (≈ 21.6 µM)
MIC (BBRI Pa-No. 43, Table 2): 6.3 µg/mL (≈ 10.9 µM)
MIC (BBRI Pa-No. 44, Table 2): 6.3 µg/mL (≈ 10.9 µM)
MIC (BBRI Pa-No. 51, Table 2): 6.3 µg/mL (≈ 10.9 µM)
MIC (BBRI Pa-No. 52, Table 2): 6.3 µg/mL (≈ 10.9 µM)
MIC (BBRI Pa-No. 53, Table 2): 6.3 µg/mL (≈ 10.9 µM)
MIC (BBRI Pa-No. 54, Table 2): 6.3 µg/mL (≈ 10.9 µM)
MIC (BBRI Pa-No. 55, Table 2): 6.3 µg/mL (≈ 10.9 µM)
MIC (BBRI Pa-No. 56, Table 2): 6.3 µg/mL (≈ 10.9 µM)
MIC (BBRI Pa-No. 57, Table 2): 3.1 µg/mL (≈ 5.37 µM)
MIC (BBRI Pa-No. 58, Table 2): 12.5 µg/mL (≈ 21.6 µM)
MIC (BBRI Pa-No. 59, Table 2): 6.3 µg/mL (≈ 10.9 µM)
MIC (BBRI Pa-No. 60, Table 2): 3.1 µg/mL (≈ 5.37 µM)
MIC (BBRI Pa-No. 61, Table 2): 6.3 µg/mL (≈ 10.9 µM)
MIC (BBRI Pa-No. 62, Table 2): 12.5 µg/mL (≈ 21.6 µM)
MIC (BBRI Pa-No. 64, Table 2): 6.3 µg/mL (≈ 10.9 µM)
MIC (BBRI Pa-No. 65, Table 2): 3.1 µg/mL (≈ 5.37 µM)
MIC (BBRI Pa-No. 66, Table 2): 3.1 µg/mL (≈ 5.37 µM)
MIC (BBRI Pa-No. 67, Table 2): 12.5 µg/mL (≈ 21.6 µM)
MIC (BBRI Pa-No. 68, Table 2): 12.5 µg/mL (≈ 21.6 µM)
MIC (BBRI Pa-No. 69, Table 2): 25 µg/mL (≈ 43.3 µM)
MIC (BBRI Pa-No. 70, K-Ps102 (CR-102), Table 2): 6.3 µg/mL (≈ 10.9 µM)
MIC (GN315, BBRI Pa-No. 27, GN315, Table 2): 6.3 µg/mL (≈ 10.9 µM)
MIC (GN4925, BBRI Pa-No. 45, GN4925, Table 2): 12.5 µg/mL (≈ 21.6 µM)
